Experimental data published in PubChem BioAssay AID488788 (Broad Institute, 2010).
Results filed as inconclusive are left out. The source made the active and inactive calls. No rule for the calls is given here.

Molecular target: CAAX prenyl protease 2 (Saccharomyces cerevisiae (strain ATCC 204508 / S288c)) (UniProt Q03530)
Assay: yeast Rce1 CAAX endoprotease inhibition – biochemical, plate reader, cherry-pick, dose response (AID 488788)
Settings: Rce1p enzyme activity, at 10 µM (top of the series)

CAAX prenyl protease 2 (Saccharomyces cerevisiae (strain ATCC 204508 / S288c)), sequence (Q03530 whole entry, looked up): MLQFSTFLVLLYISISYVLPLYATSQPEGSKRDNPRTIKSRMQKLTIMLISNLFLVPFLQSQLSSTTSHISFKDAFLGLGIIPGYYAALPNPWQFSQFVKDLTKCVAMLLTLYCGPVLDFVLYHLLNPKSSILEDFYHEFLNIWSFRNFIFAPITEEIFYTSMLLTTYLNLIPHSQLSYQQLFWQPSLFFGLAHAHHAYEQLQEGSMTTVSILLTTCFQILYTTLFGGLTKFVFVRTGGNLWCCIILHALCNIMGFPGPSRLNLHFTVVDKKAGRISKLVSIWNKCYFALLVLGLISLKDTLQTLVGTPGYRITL

| Compound | activity change, negative = inhibition |
| --- | --- |
| COc1cc(-c2nc3ccccn3c2/N=C/c2cccc(OC)c2O)ccc1O | inactive |
| Cc1cccc(N2C(=O)c3cccc4c(N5CCCCC5)c([N+](=O)[O-])cc(c34)C2=O)c1C | inactive |
| COc1cc(OC)cc(-c2ncc3ccccn23)c1 | inactive |
| CCn1cc(C(=O)N[C@H](C)c2ccccc2)c(=O)c2cc(F)c(N3CCN(C)CC3)cc21 | inactive |
| COc1ccc(C(=O)/C=C/c2ccc(OC)cc2OC)c(O)c1 | inactive |
| CCc1nnc(NC(=O)c2ccc(NS(=O)(=O)c3ccccc3)cc2)s1 | inactive |
| CCOC(=O)c1sc2nc(C3CC3)cc(-c3ccc(OC)cc3)c2c1N | inactive |
| CN1CCN(c2ccc([N+](=O)[O-])c(Sc3nncn3C)c2)CC1 | inactive |
| COc1cc2c(cc1OC)C(C)N(C(=O)c1cc3c(=O)oc4ccc(C)cc4c3s1)CC2 (configuration not stated) | inactive |
| O=C(NCCc1c[nH]c2ccccc12)OCCSS(=O)(=O)O | inactive |
| C=CCc1cccc(/C=N/NC(=O)COc2ccc(-n3cnnn3)cc2)c1O | inactive |
| CCN1CCN(Cc2c(O)ccc3c(=O)c(-c4ccccc4OC)coc23)CC1 | inactive |
| O=C(NCC1CC1)c1ccc(Nc2nc3ccc(Br)cc3[nH]2)cc1 | inactive |
| COc1cccc(-c2nc(C#N)c(N3CCN(C(=O)c4ccco4)CC3)o2)c1 | inactive |
| Cc1cc(Br)ccc1NC(=O)c1cnc(N2CCN(c3ccccn3)CC2)c2ccccc12 | inactive |
| COc1ccccc1N1CCN(C(=O)c2coc(=O)c(Br)c2)CC1 | inactive |
| Cc1cc2cc(C(=O)N3CCc4c([nH]c5ccccc45)C3c3ccccn3)ccc2o1 (configuration not stated) | inactive |
| FC(F)(F)c1cc(Oc2ccccc2)ncc1-c1nnc(-c2ccccc2Cl)o1 | inactive |
| O=C(O)CCCC[C@@H]1SC[C@@H]2NC(=O)N[C@@H]21 | inactive |
| O=C(O)CCC(=O)c1ccc(-c2ccccc2)cc1 | inactive |
| CCOc1ccc(-n2ccnc(SCC(=O)NC3CCCC3)c2=O)cc1 | inactive |

| Compound | activity change, negative = inhibition |
| --- | --- |
| CN(C)CCNc1ncnc2oc(-c3ccccc3)c(-c3ccccc3)c12 | inactive |
| Cc1ccc(C(=O)N2N=C(c3ccccc3O)CC2c2ccccc2)cc1 (configuration not stated) | inactive |
| O=C(Nc1ccccc1)n1ccc(-c2ccc(-n3ccnc3)cc2)n1 | inactive |
| COCCNc1nc(N)c([N+](=O)[O-])c(N2CCCCCC2)n1 | inactive |
| COc1ccc(-c2ccc(-c3nnc(-c4cc(OC)ccc4OC)o3)cc2)cc1 | inactive |
| Cc1cccc(NC(=O)c2cc(S(=O)(=O)N3CCCCC3)c[nH]2)c1C | inactive |
| COc1ccccc1-n1c(-c2ccccc2)c[nH]c1=S | inactive |
| C=CCn1c(N2CCCCCC2)nc2c1c(=O)n(C)c(=O)n2C | inactive |
| Cc1c(C)c2ccc(OC(C)C(=O)NCCCN3CCOCC3)c(C)c2oc1=O (configuration not stated) | inactive |
| CC(=O)c1c(O)cc(O)c(C(C)=O)c1O | inactive |
| COc1ccc(-c2c(-c3ccsc3)oc3ccc(N4CCOCC4)cc23)cn1 | inactive |
| CCOc1c2ccc(C(=O)NCc3ccco3)cc2nn1CCOC | inactive |
| CC(C)c1cccc(OCC(=O)Nc2ccc(S(=O)(=O)Nc3ccccn3)cc2)c1 | inactive |
| COc1ccc(S(=O)(=O)NCC2CCCO2)cc1NC(=O)c1ccccc1F (configuration not stated) | inactive |
| COc1ccc(-c2nc3ncccc3o2)cc1NC(=O)c1ccco1 | inactive |
| CCOc1cc(-c2nc3c(C)cccn3c2NCC2CCCO2)ccc1O (configuration not stated) | inactive |
| COc1ccc(OC)c(NC(=O)c2cc3oc4ccccc4c3cc2O)c1 | inactive |
| CCO[C@@H]1OC(C(=O)N2CCN(Cc3ccccc3)CC2)=C[C@H](c2ccccc2)[C@H]1CCCO | inactive |
| NS(=O)(=O)c1ccc(NC(=O)/C=C/c2cn(-c3ccccc3)nc2-c2cccc(Cl)c2)cc1 | inactive |
| CCCCOc1ccc(C(=O)Nn2c(-c3cccs3)nc3ccccc3c2=O)cc1 | inactive |
| Cc1ccc(C(=O)c2c3ccccc3[n+]([O-])n2CCO)cc1 | inactive |

| Compound | activity change, negative = inhibition |
| --- | --- |
| C=C(C)C1(O)OC(=O)C=C1OC (configuration not stated) | inactive |
| CC(Oc1ccc2c3c(c(=O)oc2c1)CCCC3)C(=O)NC1CC(C)(C)NC(C)(C)C1 (configuration not stated) | inactive |
| COC(C/C=C/[C@H](O)[C@H](C)OCc1ccccc1)OC | inactive |
| COc1ccc2c(c1)cc(C(=O)N[C@@H](CCSC)C(=O)N1CCC(C(=O)O)CC1)n2C | inactive |
| CC(C)CC(=O)NC(=S)Nc1ccc(S(=O)(=O)Nc2nccs2)cc1 | inactive |
| CCN(Cc1ccccc1)c1ccc(/C=N/N=C(N)N)cc1 | inactive |
| COCCn1cc(C(=O)NCCN(C)C)c2c3ccccc3n(C)c2c1=O | inactive |
| CC(C)C(NC(=O)c1ccco1)C(=O)NCC(c1ccco1)N1CCCCC1 (configuration not stated) | inactive |
| COc1ccc2[nH]c(C(=O)NCCCn3ccnc3)cc2c1 | inactive |
| Cc1nccc2c1[nH]c1ccccc12 | inactive |
| Cc1ccc(C(=O)N/C(=C/c2ccco2)C(=O)Nc2cccc(C(=O)O)c2)cc1 | inactive |
| O=C(Nc1cc(S(=O)(=O)N2CCOCC2)ccc1N1CCCC1)c1cnccn1 | inactive |
| CCOc1ccccc1CNC(=O)c1cc2occc2n1C | inactive |
| O=C(O)c1ccc(N/N=C/c2ccc(-c3ccccc3Cl)o2)cc1 | inactive |
| Cc1cc(C(=O)N[C@H](c2ccccc2)[C@@]2(C)C[C@@H]2[C@@H](C)C(=O)Nc2ccc3ccccc3c2)n(C)n1 | inactive |
| CCC(COC)NC(=O)CCc1nnc(Cc2cccc(C(F)(F)F)c2)o1 (configuration not stated) | inactive |
| Cc1ccc(C(=O)c2c3ccc(C(F)(F)F)cc3[n+]([O-])n2CCCC(N)=O)cc1 | inactive |
| CSc1nc(NCC(C)O)c2c3c(sc2n1)CN(C)CC3 (configuration not stated) | inactive |
| CCOc1ccc(N(CC(=O)NC2CC3CCC2C3)S(=O)(=O)c2ccccc2)cc1 (configuration not stated) | inactive |
| Cc1cc2cc(C#N)c(NCCNC(=S)NCCCN3CCOCC3)nc2cc1C | inactive |
